Source: US20040052734A1, “Process for providing a stable crystalline form of salbutamol” (Boehringer Ingelheim Pharma GmbH & Co. KG, priority 2002, published 2004)
“And” between values parts separate entries of the source, which are not always exact repeats. Equal values may be shown once.

Tests used:
Type in all cases: physicochemical
[1] = Powder X-ray diffraction at different temperatures under vacuum; conditions: amorphous (produced by freeze-drying)
Experimental: The Powder X-Ray Diffraction (Bruker, Rheinstetten, Germany) patterns were acquired at different temperatures using Cu-K α radiation (λ=1.5406 Å). The data were collected over an angular range of 2-40°2θ using a step size of 0,014°2θ and a step time of 2 sec.

[2] = Isothermal microcalorimetry (amorphous content / recrystallisation); conditions: for amorphous amount: micronised, stored in opened TWO-Glass at room temperature (21.5° C., 42% RH)
Experimental: The micronised powder underwent different conditioning settings in a climate chamber (Weiβ Klimatechnik GmbH, Reiskirchen-Lindstruth, Germany). The temperature was set at 25° C. and 40° C. and the relative humidity was varied in a field between 45% and 75%, respectively.
For “dry” conditioning settings the powders were prepared at a temperature of 70° C. in a thermal oven (Heraeus, Hanau, Germany).
The powder was investigated using a Thermal Activity Monitor (Type 2277, Thermometric, Sweden) at 25° C. The samples were weighted into a glass ampoule and a tube was added containing a saturated salt solution. The ampoule was sealed and equilibrated in the calorimeter for 5 min before lowering it into the measuring site.

[3] = Recording of humidity (sorption behaviour of micronised, wrapped powder); conditions: unconditioned, stored at 55% RH
Experimental: Using a humidity sensor (Ebro, Ingolstadt, Germany) the sorption behaviour of the micronised and wrapped powder was measured. With the help of a humidity sensor it is possible to observe the sorption behaviour of the micronised, in a PE-bag wrapped, powder. Approx. 30 g of the freshly grinded substance are wrapped in a PE-bag together with a humidity sensor and afterwards closed.

[4] = Particle size analysis by powder laser diffraction (HELIOS, RODOS dry powder feeder)
Experimental: Micronised powders were prepared with a MC Jetmill 50 (Jetpharma, Balerna, Switzerland). The micronised powder underwent different conditioning settings in a climate chamber ([…] GmbH, […], Germany). The temperature was set at 25° C. and 40° C. and the relative humidity was varied in a field between 45% and 75%, respectively. For “dry” conditioning settings the powders were prepared at a temperature of 70° C. in a thermal oven (Heraeus, Hanau, Germany). […] Samples were introduced through the RODOS dry powder feeder. The supply pressure of the injector was at 3 bar.

[5] = Table 1 batch, micronised powder, before conditioning
[6] = Table 2 batch, micronised powder, before conditioning
[7] = micronised powder conditioned 5 hours by 70° C. (dry)

CC(C)(C)NC[C@H](O)c1ccc(O)c(CO)c1 (racemic) [salbutamol sulphate]
recrystallisation of amorphous material [1]: does not recrystallize under exclusion of humidity
recrystallisation after dry conditioning ([2]; 70° C. for 5 hours): does not lead to recrystallisation
reduction of the amorphous fraction ([2]; conditioning at 25° C. and 45% RH for 24 hours): 2.5%
crystallinity after conditioning ([2]; five hours of conditioning at 40° C. and 75% RH, partially amorphous powder): complete crystalline material
amorphous content ([2]; initial sample (micronised, before conditioning)): 7.7%
amorphous amount ([2]; after 1st week): 6.5%
amorphous amount ([2]; after 2nd week): 5.4%
amorphous amount ([2]; after 4th week): 4.5%
amorphous content ([2]; unconditioned powder, wrapped, stored four weeks at 21-23° C., approx. 45% RH): < 0.5%
recrystallisation on storage [3]: completely recrystallized within one week
effect of additional conditioning duration on particle size ([4]; 40° C. and 75% RH beyond five hours, storage under same conditions for two weeks): no effect on the particle size
Particle size 10% < [4, 5]: 0.83 μm
Particle size 50% < [4, 5]: 1.94 μm
Particle size 90% < [4, 5]: 4.53 μm
Particle size 10% < [4, 6]: 0.70 μm
Particle size 50% < [4, 6]: 1.30 μm and 1.53 μm
Particle size 90% < [4, 6]: 3.42 μm
Particle size 10% < ([4]; conditioned 24 h 55% RH 25° C.): 0.78 μm
Particle size 50% < ([4]; conditioned 24 h 55% RH 25° C.): 1.66 μm
Particle size 90% < ([4]; conditioned 24 h 55% RH 25° C.): 3.56 μm
Particle size 10% < ([4]; conditioned 24 h 55% RH 40° C.): 0.79 μm
Particle size 50% < ([4]; conditioned 24 h 55% RH 40° C.): 1.68 μm
Particle size 90% < ([4]; conditioned 24 h 55% RH 40° C.): 3.59 μm
Particle size 10% < ([4]; conditioned 24 h 65% RH 25° C.): 0.82 μm
Particle size 50% < ([4]; conditioned 24 h 65% RH 25° C.): 1.76 μm
Particle size 90% < ([4]; conditioned 24 h 65% RH 25° C.): 3.67 μm
Particle size 10% < ([4]; conditioned 24 h 65% RH 40° C.): 0.80 μm
Particle size 50% < ([4]; conditioned 24 h 65% RH 40° C.): 1.72 μm
Particle size 90% < ([4]; conditioned 24 h 65% RH 40° C.): 3.64 μm
Particle size 10% < ([4]; conditioned 24 h 75% RH 25° C.): 0.83 μm
Particle size 50% < ([4]; conditioned 24 h 75% RH 25° C.): 1.77 μm
Particle size 90% < ([4]; conditioned 24 h 75% RH 25° C.): 3.69 μm
Particle size 10% < ([4]; conditioned 24 h 75% RH 40° C.): 0.84 μm
Particle size 50% < ([4]; conditioned 24 h 75% RH 40° C.): 1.78 μm
Particle size 90% < ([4]; conditioned 24 h 75% RH 40° C.): 3.69 μm
uncontrolled particle growth in terms of particle diameters ([4]; dry conditioning, then four weeks of storage): up to 16%
Particle size 10% < [4, 7]: 0.82 μm
Particle size 50% < [4, 7]: 1.90 μm
Particle size 90% < [4, 7]: 4.45 μm
particle size on storage without conditioning ([4]; wrapped, stored 21-23° C., approx. 45% RH, up to three months): shows likewise particle growth
